Results published in patent publication US20040019092A1, “Non-peptide somatostatin receptor ligands” (priority 2001, published 2004).

Tests used:
[1] = biological target: T1, human sst2 receptor sub-type (Homo sapiens, UniProt P30874); test: In vitro binding, human sst2 receptor sub-type (SSTR2); details: Tables 8/9: Bind SSTR2 nM
T1 construct: host or cells: SRIF receptor expressing cell cultures (general statement only)
Experimental: The in vitro binding affinities for rat cortex SRIF receptors and the human sst2 receptor sub-type was assessed. Further the in vitro inhibition of the GHRH induced GH secretion in primary cultures of rat pituitary cells as well as the in vivo inhibition of GH secretion in the rat after systemic or enteral application was studied. […] Therefore, the in vivo activities of the compounds in rats with respect to inhibition of growth hormone release was also assessed. Most compounds selected were tested by enteral—intraduodenal (i.d.) application. For determination of the absolute activity and for the calculation of an enteral bioavailability, single subcutaneous (s.c.) application of intravenous (i.v.) infusion was used.

[2] = tested on: GH secretion; test: GH secretion in vivo, rat, intraduodenal (enteral) application, 1 h (basal); details: for GH vivo i.d. 1 h ID50: basal GH secretion, 1 h after intraduodenal application, mostly approximate ID50 from single 10 mg/kg dose, Ø = no effect at this dose, > = extrapolated value
Experimental: (§1) Animals, anesthesia: Male rats of a Sprague Dawley strain (Ico:OFA-SD, Iffa-Credo, F-Lyon) of 200-300 g body weight were used. They were kept under standardized conditions and were anesthetized with pentobarbital-sodium (Siegfried, CH Zofingen), 60 mg/kg i.p. for subcutaneous and intraduodenal applications. Animals designed for an infusion experiment were anesthetized with urethane (Siegfried, CH Zofingen), 1.2 g/kg i.p.
(§2) Compounds: The compounds were dissolved, optionally with the aid of one or more of the following adjuncts:
(§3) Stock solutions of the compounds were prepared in water with the addition of the necessary adjunct(s). Further dilutions were prepared allowing 5 mL/kg for subcutaneous application, 2 mL for intraduodenal (i.d.) application or 4.5 mL/kg for intravenous infusion. The solutions for the intravenous application/infusion were made isotonic by addition of glucose to a final concentration of 5%.
(§4) Applications were made, or, in the case of infusion, started, approximately 10 minutes after induction of anesthesia. No further treatment followed subcutaneous or intraduodenal application. Ten, twenty-five and fifty-five minutes after start of the intravenous infusion the GH secretion was stimulated with repeated intravenous injections of the potent GHRH analog, D-Ala2 GHRH1-29NH2, 1 μg/kg.
(§5) One hour after subcutaneous or intraduodenal application of the compounds, blood was collected from the trunk after decapitation. In the case of application by infusion, 5 minutes after each application of GHRH, a blood sample of 0.8 mL was taken from a V. jugularis and mixed with EDTA (Eppendorf tubes TOM14, Milian, CH Geneva). The blood samples were kept on ice and spun in a cooled centrifuge. The serum or plasma was separated and frozen.
(§6) Statistics: In each experiment, 4-5 animals were used per dose, with 6 to 8 animals as the control group that received the vehicle. The GH serum/plasma levels were averaged, the mean of the treated groups expressed in percent of the control group and the ID50-value for the inhibition of the secretion was determined graphically (log-probit) for each experiment. In most experiments with enteral (intraduodenal) application only 1 dose, 10 mg/kg, was given. […] Only inhibitions between 20 and 80% were considered reliable.
(§7) Two to four experiments were performed. In the case of proper dose response curves, allowing the determination of an ID50 values were averaged logarithmically. In the cases of single dose-experiments, the GH value in percent of control were averaged logarithmically and the ID50 for this value was taken from the table. ID50 values determined at the different time points during the infusion were averaged and this value was included in the tables.

[3] = tested on: GHRH stimulated GH secretion; test: GH secretion in vivo, rat, intravenous infusion with repeated GHRH stimulation; details: for GH vivo Inf + GHRH ID50 (mean of time points): urethane, i.v. infusion, GHRH stimulated; for INFUS. + GHRH ID50 MEAN: Table 4, mean of infusion time points; for INFUS. + GHRH ID50 15′ / INFUS. + GHRH ID50 30′ / INFUS. + GHRH ID50 60′: Table 4, urethan; for INFUS. + GHRH ID50 15′: 15′ of infusion; for INFUS. + GHRH ID50 30′: 30′ of infusion; for INFUS. + GHRH ID50 60′: 60′ of infusion
Experimental: as §1, §3, §4, §5, §6, §7

[4] = tested on: GH secretion; test: Unanesthetized estradiol primed male rats, oral by gavage: GH; format: in vivo, rat; details: for GH 1 H ID50 / MEAN ID50 (GH and prolactin): estradiol implant male rats, oral by gavage, 1 hour
Experimental: The inhibitory effect of the compounds on GH release may also be examined after oral application to male rats with oestradiol implants. This test is carried out as follows.
A loop (length 50 mmØ3 mm) of silastic with 50 mg of oestradiol is implanted under the dorsal skin of anaesthetized male OFA rats that have a weight of ca. 300 g. At various times (1 to 6 months later), these animals, in a fasted state, are used repeatedly for tests. The test substances are active in this test at doses from 0.1 to 5 mg/kg, when GH level in the blood serum is determined by radio-immunoassay 1 and 2 hours after oral administration.
(§8) Table 5 summarizes the results obtained in the estradiol primed male rats that received the compounds orally by gavage. These rats have stabilized elevated GH plasma levels as well as increased prolactin levels. In contrast to normal untreated rats, who's prolactin secretion is not sensitive to the inhibitory effect of somatostain, in these rats the prolactin secretion is inhibited to a similar degree as the GH secretion. Therefore, the inhibitory effect can be measured on 2 different parameters, GH and prolactin. The mean enteral absorption and activity of the respective compounds are shown.

[5] = tested on: prolactin secretion; test: Unanesthetized estradiol primed male rats, oral by gavage: prolactin; format: in vivo, rat; details: for PROLACT 1 H ID50: estradiol implant male rats, oral by gavage, ø = no effect at this dose
Text: as §8

[6] = tested on: GH secretion; test: GH secretion in vivo, rat, subcutaneous application, 1 h (basal); details: rat, basal GH secretion, 1 h after subcutaneous application
Experimental: as §1, §2, §3, §4, §5, §6, §7

[7] = tested on: GHRH stimulated GH secretion; test: GH secretion, rat in urethan anesthesia, subcutaneous + repeated GHRH stimulation; format: in vivo
Experimental: as §4
(§9) With most of these selected compounds additional in vivo experiments in other models (intraduodenal application followed by repeated stimulation of the GH secretion by GHRH, oral application by gavage of unanesthetized, estradiol primed rats) were performed. Table 4 summarizes data obtained for the inhibition of the stimulated GH secretion after subcutaneous, intraduodenal and intravenous application and the inhibitory effects obtained for different time points during intravenous infusion of selected hydantoins.

[8] = tested on: GHRH stimulated GH secretion; test: GH secretion, rat in urethan anesthesia, intraduodenal + repeated GHRH stimulation; format: in vivo; details: urethan
Text: as §9, with “No further treatment followed subcutaneous or intraduodenal application. […] This value has been determined in a total of four independent experiments. […] However, in further studies compound 47 has also been tested by the enteral route of administration after repeated stimulation of the GH secretion by GHRH. […] With” for “With”, “hydantoins. […] [table]” for “hydantoins.”

[9] = tested on: GHRH stimulated GH secretion; test: GH secretion, rat in urethan anesthesia, i.v. single injection + repeated GHRH stimulation; format: in vivo

T1 sequence (P30874 whole entry): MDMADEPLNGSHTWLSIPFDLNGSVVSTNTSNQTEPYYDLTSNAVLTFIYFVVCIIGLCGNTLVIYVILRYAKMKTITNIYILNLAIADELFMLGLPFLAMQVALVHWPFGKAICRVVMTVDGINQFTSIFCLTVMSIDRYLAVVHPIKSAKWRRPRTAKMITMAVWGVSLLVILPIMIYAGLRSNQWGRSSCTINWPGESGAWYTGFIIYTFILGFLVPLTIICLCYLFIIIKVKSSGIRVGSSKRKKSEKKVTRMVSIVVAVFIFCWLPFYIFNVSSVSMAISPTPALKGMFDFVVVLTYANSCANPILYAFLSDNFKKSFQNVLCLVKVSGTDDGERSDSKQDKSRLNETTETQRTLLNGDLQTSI

| SMILES | IC50 [1] [nM] | GH vivo i.d. 1 h ID50 [2] [mg/kg] | GH vivo Inf + GHRH ID50 (mean of time points) [3] [µg/kg/h] | GH 1 H ID50 [4] [mg/kg] | MEAN ID50 (GH and prolactin) [4] [mg/kg] | PROLACT 1 H ID50 [5] [mg/kg] | GH vivo s.c. 1 h ID50 [6] [µg/kg] | INFUS. + GHRH ID50 MEAN [3] [µg/kg] | INFUS. + GHRH ID50 15′ [3] [µg/kg] | INFUS. + GHRH ID50 30′ [3] [µg/kg] | INFUS. + GHRH ID50 60′ [3] [µg/kg] | further results |
| --- | --- | --- | --- | --- | --- | --- | --- | --- | --- | --- | --- | --- |
| CN(C)C(=O)c1cc(S(=O)(=O)N2C(=O)N(CCCCCN)C(=O)C2Cc2c[nH]c3ccccc23)ccc1Oc1ccc(OC(=O)C(N)CCCCN)c(Cl)c1 (stereo not shown) [Compound 48] | 2.5 | > 15 | 32.00 | 11 | 9.95 | 9 | – | – | – | – | – | GH inhibition by the enteral route ([2]; 10 mg/kg enteral): exhibited inhibition |
| Cc1cccc2c(CC3C(=O)N(CCCCCN)C(=O)N3S(=O)(=O)c3ccc(Oc4ccc(O)c(Cl)c4)c(C(=O)N(C)C)c3)c[nH]c12 (single isomer, unassigned; (+)) [(+)-43] | 0.18 | 4.8 | 1.68 | – | – | – | 3.0 | 1.68 | 2.28 | 1.54 | 1.35 | GH vivo s.c. 1 h ID50 ([6]; listed as (+)−43): 3.00 µg/kg; GH vivo s.c. 1 h ID50 ([6]; listed as (+)−43 ch): 3.00 µg/kg |
| Cc1cccc2c(CC3C(=O)N(CCCCCN)C(=O)N3S(=O)(=O)c3ccc(Oc4ccc(O)c(Cl)c4)c(C(=O)N(C)C)c3)c[nH]c12 (racemic) [(+/−)-43] | – | 3.417 | 3.72 | 3 | 2.324 | 1.8 | 3.79 | 3.72 | 6.44 | 3.58 | 2.24 | enteral ID50 (GH secretion) ([2]; enteral (intraduodenal) application): 3.4 mg/kg; inhibition at 10 mg/kg ([2]; intraduodenal, enteral administration of 10 mg/kg): 68%; SUBCUTANEOUS + GHRH ID50 15′ ([7]; 15′): 7.05 µg/kg; SUBCUTANEOUS + GHRH ID50 30′ ([7]; 30′): 7.95 µg/kg; SUBCUTANEOUS + GHRH ID50 60′ ([7]; 60′): 11.35 µg/kg; SUBCUTANEOUS + GHRH ID50 120′ ([7]; 120′): 15.69 µg/kg; INTRADUODENAL + GHRH ID50 15′ ([8]; 15′, ø = no effect at this dose): 1165 µg/kg; INTRADUODENAL + GHRH ID50 30′ ([8]; 30′): 1646 µg/kg; INTRADUODENAL + GHRH ID50 60′ ([8]; 60′): 1419 µg/kg; INTRADUODENAL + GHRH ID50 120′ ([8]; 120′, ø = no effect at this dose): 2872 µg/kg; I.V. SINGLE INJECTION + GHRH ID50 15′ ([9]; 15′): 12.50 µg/kg; I.V. SINGLE INJECTION + GHRH ID50 30′ ([9]; 30′): 31.20 µg/kg; I.V. SINGLE INJECTION + GHRH ID50 60′ ([9]; 60′): 55.00 µg/kg; I.V. SINGLE INJECTION + GHRH ID50 120′ ([9]; 120′): 124.10 µg/kg; oral ID50 (GH) ([4]; estradiol primed male rats): 3 mg/kg; oral ID50 (prolactin) ([5]; estradiol primed male rats): 1.8 mg/kg |
